Data: US20030036633A1, “DNA encoding bradykinin B1 receptor” (Merck & Co., Inc., priority 1994, published 2003)
Entries after “also recorded” stand apart in the source; their conditions may differ. Like-named read-outs stand apart in the source and are kept apart here. Residues, ends and D or L forms follow the SMILES beside them.

Experiments:
[1] = biological target: T1, B1 receptor in IMR-90 cells (Homo sapiens, UniProt P46663); experiment: Displacement of 1 nM [3H]des-Arg10kallidin, membrane binding assay, IMR-90
T1 construct: 33E9) with the B1 receptor in IMR-90 cells (IMR-90); endogenous in cells; host or cells: IMR-90 cells (ATCC CCL 186)
T1 sequence (P46663 1-353): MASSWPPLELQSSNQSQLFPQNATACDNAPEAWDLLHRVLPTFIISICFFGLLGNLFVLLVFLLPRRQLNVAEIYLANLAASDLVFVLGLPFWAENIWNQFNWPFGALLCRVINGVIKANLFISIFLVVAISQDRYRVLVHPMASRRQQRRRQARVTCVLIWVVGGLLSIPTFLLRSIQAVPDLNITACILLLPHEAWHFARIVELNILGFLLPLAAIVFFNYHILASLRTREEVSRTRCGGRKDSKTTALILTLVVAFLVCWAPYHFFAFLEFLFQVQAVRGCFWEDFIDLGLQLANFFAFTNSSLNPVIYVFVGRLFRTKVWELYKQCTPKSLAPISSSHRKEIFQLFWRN

[2] = biological target: T2, cloned human B1 bradykinin receptor in transiently transfected COS-7 cells (COS 33E9) (Homo sapiens, UniProt P46663); experiment: Displacement of 1 nM [3H]des-Arg10kallidin, membrane binding assay, COS 33E9; conditions: for affinity for / displacement of [3H]des-Arg10kallidin from the cloned receptor, in words: cloned B1 receptor expressed in COS-7 cells
T2 construct: the full-length open reading frame of the B1 DNA (encoding a protein of about 40.4 kDa =about base 209 to about base 1267); expressed in transfected cells; host or cells: COS-7 cells, transient electroporation of clone 33E9 (pcDNA3 library vector)
T2 sequence (P46663 1-353): T1 sequence (P46663 1-353)
Procedure: Transient expression of the cloned B1 bradykinin receptor in COS-7 cells was accomplished by electroporation using a Biorad Gene Pulser. […] Binding assays were performed at room temperature for 45 minutes. Reactions were terminated by filtration using an Inotech cell harvester onto glass fiber filters (Inotech) that had been briefly soaked in 0.3% polyethyleneimine. The filters were washed five times with 1 ml per well of cold PBS and counted in a liquid scintillation counter. Alternatively, reactions were collected using a Tomtec cell harvester 96 onto 0.3% polyethyleneimine presoaked glass fiber filters (Pharmacia, printed filtermat for use with the 1205 Betaplate). The filter was washed five times with a total of 10 ml per well of cold 1× PBS, dried and sealed in a bag (Pharmacia) containing scintillation fluid. Counting was accomplished using a LKB1205 Betaplate liquid scintillation counter.

IMR-90 cells = experiment: IL-1beta treatment of IMR-90 cells, number of B1 bradykinin receptors; assay type: cell-based, human
[3] = biological target: T3, B1 bradykinin receptor present in human aorta (Homo sapiens, UniProt P46663); experiment: Affinity at B1 bradykinin receptor present in human aorta; assay type: binding; conditions: R.W.R, unpublished data
T3 construct: The B1 bradykinin receptor present in human aorta; from tissue; host or cells: human aorta
T3 sequence (P46663 1-353): T1 sequence (P46663 1-353)

[4] = biological target: cloned human B1 bradykinin receptor (clone 33E9) (human) (UniProt P46663); experiment: displacement of 1 nM [3H]des-Arg10kallidin, membrane binding assay, COS-7 cells transiently transfected with clone 33E9
[5] = biological target: T4, B1 bradykinin receptor in IMR-90 cells (human, UniProt P46663 1-353); experiment: displacement of 1 nM [3H]des-Arg10kallidin, membrane binding assay, IMR-90 cells
T4 construct: whole, on cells; Endogenous receptor; also called B1 receptor expressed in IMR-90 cells
T4 sequence (looked up): T1 sequence (P46663 1-353)
Procedure: Binding assays were performed at room temperature for 45 minutes. Reactions were terminated by filtration using an Inotech cell harvester onto glass fiber filters (Inotech) that had been briefly soaked in 0.3% polyethyleneimine. The filters were washed five times with 1 ml per well of cold PBS and counted in a liquid scintillation counter. Alternatively, reactions were collected using a Tomtec cell harvester 96 onto 0.3% polyethyleneimine presoaked glass fiber filters (Pharmacia, printed filtermat for use with the 1205 Betaplate). The filter was washed five times with a total of 10 ml per well of cold 1× PBS, dried and sealed in a bag (Pharmacia) containing scintillation fluid. Counting was accomplished using a LKB₁₂₀₅ Betaplate liquid scintillation counter.
The IC₅₀'s were determined by the displacement of 1 nM [³H]des- Arg¹⁰kallidin in the membrane binding assay described above.

B1 receptor = biological target: T5, B1 receptor (Homo sapiens, UniProt P46663); experiment: Electrophysiology of cRNA-injected Xenopus oocytes monitoring the Ca2+ sensitive Cl- channel; assay type: cell-based; conditions: oocytes injected with cRNA of strongest positive pool
T5 construct: expressed in transfected cells; host or cells: Xenopus laevis oocytes injected with cRNA from a pool of about 800 library clones
T5 sequence (P46663 1-353): T1 sequence (P46663 1-353)

[6] = displacement of 1 nM [3H]des-Arg10kallidin, IMR-90 membranes, read-out: IC50, IMR-90
[7] = displacement of 1 nM [3H]des-Arg10kallidin, membranes of transiently transfected COS-7 cells, read-out: IC50, COS 33E9

Compound: CC[C@H](C)[C@H](NC(=O)[C@H](Cc1ccc(O)cc1)NC(=O)[C@@H]1CCCN1C(=O)[C@H](CCCNC(=N)N)NC(=O)[C@H](CCCNC(=N)N)NC(C)=O)C(=O)N[C@@H](CC(C)C)C(=O)O [Acetylated Neurotensin(8-13)]
- IC50 [1]: > 10 µM
- IC50 [2]: > 10 µM

Compound: CC[C@H](C)[C@H](NC(=O)[C@H](Cc1ccc(O)cc1)NC(=O)[C@@H](NC(=O)[C@H](CCCNC(=N)N)NC(=O)[C@@H](N)CC(=O)O)C(C)C)C(=O)N[C@@H](Cc1cnc[nH]1)C(=O)N1CCC[C@H]1C(=O)N[C@@H](Cc1ccccc1)C(=O)O [Angiotensin II]
- IC50 [1, 6]: > 10 µM
- IC50 [2, 7]: > 10 µM

Compound: NC(=O)CC[C@@H]1NC(=O)[C@H](Cc2ccccc2)NC(=O)[C@H](Cc2ccc(O)cc2)NC(=O)[C@@H](N)CSSC[C@@H](C(=O)N2CCC[C@H]2C(=O)N[C@@H](CCCN=C(N)N)C(=O)NCC(N)=O)NC(=O)[C@H](CC(N)=O)NC1=O [Arg Vasopressin]
- IC50 [1]: > 10 µM
- IC50 [2]: > 10 µM

Compound: N=C(N)NCCC[C@H](N)C(=O)N1CCC[C@H]1C(=O)N1CCC[C@H]1C(=O)NCC(=O)N[C@@H](Cc1ccccc1)C(=O)N[C@@H](CO)C(=O)N1CCC[C@H]1C(=O)O [Bradykinin(1-7)] (H-RPPGFSP-OH)
- IC50 [1]: > 10 µM
- IC50 [2]: > 10 µM

Compound: N=C(N)NCCC[C@H](NC(=O)[C@H](Cc1ccccc1)NC(=O)[C@@H]1CCCN1C(=O)[C@H](CO)NC(=O)[C@H](Cc1ccccc1)NC(=O)CNC(=O)[C@@H]1CCCN1C(=O)[C@@H]1CCCN1)C(=O)O [Bradykinin(2-9)] (H-PPGFSPFR-OH; N-terminus and C-terminus assumed)
- IC50 [1, 6]: > 10 µM
- IC50 [2, 7]: > 10 µM

Compound: NC(N)=NCCC[C@H](NC(=O)[C@H](Cc1ccccc1)NC(=O)[C@@H]1CCCN1C(=O)[C@H](CO)NC(=O)[C@H](Cc1ccccc1)NC(=O)CNC(=O)[C@@H]1CCCN1C(=O)[C@@H]1CCCN1C(=O)[C@@H](N)CCCN=C(N)N)C(=O)O [Bradykinin] (H-RPPGFSPFR-OH)
- IC50 [1]: > 10 µM
- IC50 [2]: > 10 µM

Compound: CC[C@H](C)[C@H](NC(=O)[C@H](CCCNC(=N)N)NC(=O)[C@H](CCCNC(=N)N)NC(=O)[C@H](CC(C)C)NC(=O)[C@H](Cc1ccccc1)NC(=O)CNC(=O)CNC(=O)[C@@H](N)Cc1ccc(O)cc1)C(=O)N[C@@H](CCCNC(=N)N)C(=O)N1CCC[C@H]1C(=O)N[C@@H](CCCCN)C(=O)N[C@@H](CC(C)C)C(=O)N[C@@H](CCCCN)C(=O)N[C@@H](Cc1c[nH]c2ccccc12)C(=O)N[C@@H](CC(=O)O)C(=O)N[C@@H](CC(N)=O)C(=O)N[C@@H](CCC(N)=O)C(=O)O [Dynorphin(1-17)]
- IC50 [1]: > 7 µM
- IC50 [2]: > 7 µM

Compound: CC[C@H](C)[C@H](NC(=O)[C@H](CC(=O)O)NC(=O)[C@H](CC(C)C)NC(=O)[C@H](Cc1cnc[nH]1)NC(=O)[C@@H]1CSSC[C@H](N)C(=O)N[C@@H](CO)C(=O)N[C@H]2CSSC[C@H](NC(=O)[C@H](CCC(=O)O)NC(=O)[C@H](CCCCN)NC(=O)[C@H](CC(=O)O)NC(=O)[C@H](CCSC)NC(=O)[C@H](CC(C)C)NC(=O)[C@H](CO)NC(=O)[C@H](CO)NC2=O)C(=O)N[C@@H](C(C)C)C(=O)N[C@@H](Cc2ccc(O)cc2)C(=O)N[C@@H](Cc2ccccc2)C(=O)N1)C(=O)N[C@H](C(=O)N[C@@H](Cc1c[nH]c2ccccc12)C(=O)O)[C@@H](C)CC [Endothelin I]
- IC50 [1, 6]: > 1 µM
- IC50 [2, 7]: > 1 µM

Compound: NC(N)=NCCC[C@@H](N)C(=O)N[C@@H](CCCN=C(N)N)C(=O)N1CCC[C@H]1C(=O)N1C[C@H](O)C[C@H]1C(=O)NCC(=O)N[C@@H](Cc1cccs1)C(=O)N[C@@H](CO)C(=O)N1Cc2ccccc2C[C@@H]1C(=O)N1[C@H](C(=O)N[C@@H](CCCN=C(N)N)C(=O)O)C[C@@H]2CCCC[C@@H]21 [Hoe 140]
- IC50 [1, 6]: > 10 µM
- IC50 [2, 7]: > 10 µM

Compound: CC(C)C[C@H](NC(=O)[C@H](Cc1ccccc1)NC(=O)CNC(=O)CNC(=O)[C@@H](N)Cc1ccc(O)cc1)C(=O)O [Leu-Enkephalin]
- IC50 [1]: > 10 µM
- IC50 [2]: > 10 µM

Compound: CC[C@H](C)[C@@H]1NC(=O)[C@H](Cc2ccc(O)cc2)NC(=O)[C@@H](N)CSSC[C@@H](C(=O)N2CCC[C@H]2C(=O)N[C@@H](CC(C)C)C(=O)NCC(N)=O)NC(=O)[C@H](CC(N)=O)NC(=O)[C@H](CCC(N)=O)NC1=O [Oxytocin]
- IC50 [1, 6]: > 10 µM
- IC50 [2, 7]: > 10 µM

Compound: CSCC[C@H](NC(=O)[C@H](CC(C)C)NC(=O)CNC(=O)[C@H](Cc1ccccc1)NC(=O)[C@H](Cc1ccccc1)NC(=O)[C@H](CCC(N)=O)NC(=O)[C@H](CCC(N)=O)NC(=O)[C@@H]1CCCN1C(=O)[C@H](CCCCN)NC(=O)[C@@H]1CCCN1C(=O)[C@@H](N)CCCN=C(N)N)C(N)=O [Substance P]
- IC50 [1, 6]: > 10 µM
- IC50 [2, 7]: > 10 µM

Compound: IL-1β: cytokine IL-1β (R & D Systems)
- stimulation of the number of B1 bradykinin receptors (IMR-90 cells): approximately 7 fold

Compound: [des-Arg^10],[3,4-^3H(N)]-kallidin [[^3H]des-Arg^10kallidin]
- affinity for / displacement of [3H]des-Arg10kallidin from the cloned receptor, in words [2]: high affinity binding

Compound: des-Arg^9Leu^8bradykinin
- affinity for / displacement of [3H]des-Arg10kallidin from the cloned receptor, in words [2]: high affinity binding

Compound: des-Arg^9bradykinin
- affinity [3]: > 1000 nM
- affinity for the B1 receptor in IMR-90 cells, in words ([1]; IMR-90 cells): relatively low affinity
- affinity for / displacement of [3H]des-Arg10kallidin from the cloned receptor, in words [2]: relatively low affinity

Compound: des-Arg^10HOE 140 (peptide)
- IC50 [4]: 0.094 µM
- IC50 [5]: 0.04 µM

Compound: des-Arg^10Leu^9kallidin
- block of des-Arg10kallidin response (B1 receptor): blocked
- affinity for / displacement of [3H]des-Arg10kallidin from the cloned receptor, in words [2]: high affinity binding; also recorded: effectively displaces

Compound: des-Arg^10kallidin
- agonist response of Ca2+ sensitive Cl- channel (B1 receptor): produced a response
